# Toxic doses and inconclusive results are not listed.
# Tested on: P388 leukemia ip, CD2F1 mice, survival T/C
# Assay: NCI In Vivo Anticancer Drug Screen. Data for tumor model P388 Leukemia (intraperitoneal) in CD2F1 (CDF1) mice
# Settings: endpoint: median survival time, higher = longer survival
# How it was run: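 Mice carrying the transplanted tumor received test compound or vehicle. Survival was recorded in each group, and the value is the treated-group measurement divided by that of the vehicle-treated control group.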
# [1] = dose: 50.0 mg/kg/injection, schedule: Q01DX005 (ip), vehicle: Klucel (hydroxypropylcellulose) (HPC)
# [2] = dose: 100.0 mg/kg/injection, schedule: Q01DX005 (ip), vehicle: Klucel (hydroxypropylcellulose) (HPC)
# [3] = dose: 50.0 mg/kg/injection, schedule: Q01DX005 (ip), vehicle: saline with Tween-80
# [4] = dose: 100.0 mg/kg/injection, schedule: Q01DX005 (ip), vehicle: saline with Tween-80
# [5] = dose: 200.0 mg/kg/injection, schedule: Q01DX005 (ip), vehicle: saline with Tween-80
# [6] = dose: 12.5 mg/kg/injection, schedule: Q01DX005 (ip), vehicle: Klucel (hydroxypropylcellulose) (HPC)
# [7] = dose: 25.0 mg/kg/injection, schedule: Q01DX005 (ip), vehicle: Klucel (hydroxypropylcellulose) (HPC)
# [8] = dose: 50.0 mg/kg/injection, schedule: Q01DX009 (ip), vehicle: saline
# [9] = dose: 100.0 mg/kg/injection, schedule: Q01DX009 (ip), vehicle: saline
smiles,measurement,setting,value
C1CCC2C[N-]CCC2C1.C1CCC2C[N-]CCC2C1.C1CCC2C[N-]CCC2C1.C1CCC2C[N-]CCC2C1.[Cl][Rh][Cl] (centres undefined),T/C,"dose: 0.06 mg/kg/injection, schedule: Q03HX024 (ip), vehicle: saline",105 % of control
same,T/C,"dose: 0.13 mg/kg/injection, schedule: Q03HX008 (ip), vehicle: saline",113 % of control
same,T/C,"dose: 0.13 mg/kg/injection, schedule: Q03HX016 (ip), vehicle: saline",105 % of control
same,T/C,"dose: 0.13 mg/kg/injection, schedule: Q03HX024 (ip), vehicle: saline",100 % of control
same,T/C,"dose: 0.25 mg/kg/injection, schedule: Q01DX009 (ip), vehicle: saline",107 % of control
same,T/C,"dose: 0.25 mg/kg/injection, schedule: Q03HX008 (ip), vehicle: saline",118 % of control
same,T/C,"dose: 0.25 mg/kg/injection, schedule: Q03HX016 (ip), vehicle: saline",110 % of control
same,T/C,"dose: 0.25 mg/kg/injection, schedule: Q03HX024 (ip), vehicle: saline",108 % of control
same,T/C,"dose: 0.5 mg/kg/injection, schedule: Q01DX009 (ip), vehicle: saline",110 % of control
same,T/C,"dose: 0.5 mg/kg/injection, schedule: Q03HX008 (ip), vehicle: saline",123 % of control
same,T/C,"dose: 0.5 mg/kg/injection, schedule: Q03HX016 (ip), vehicle: saline",116 % of control
same,T/C,"dose: 0.5 mg/kg/injection, schedule: Q03HX024 (ip), vehicle: saline",117 % of control
same,T/C,"dose: 0.5 mg/kg/injection, schedule: Q04DX003 (ip), vehicle: saline",111 % of control
same,T/C,"dose: 1.0 mg/kg/injection, schedule: Q01DX001 (ip), vehicle: saline",118 % of control
same,T/C,"dose: 1.0 mg/kg/injection, schedule: Q03HX008 (ip), vehicle: saline",121 % of control
same,T/C,"dose: 1.0 mg/kg/injection, schedule: Q03HX016 (ip), vehicle: saline",115 % of control
same,T/C,"dose: 1.0 mg/kg/injection, schedule: Q04DX003 (ip), vehicle: saline",113 % of control
same,T/C,"dose: 1.0 mg/kg/injection, schedule: Q08DX002 (ip), vehicle: saline",114 % of control
same,T/C,"dose: 1.3 mg/kg/injection, schedule: Q01DX009 (ip), vehicle: water",111 % of control
same,T/C,"dose: 2.0 mg/kg/injection, schedule: Q01DX001 (ip), vehicle: saline",119 % of control
same,T/C,"dose: 2.0 mg/kg/injection, schedule: Q03HX008 (ip), vehicle: saline",119 % of control
same,T/C,"dose: 2.0 mg/kg/injection, schedule: Q04DX003 (ip), vehicle: saline",115 % of control
same,T/C,"dose: 2.0 mg/kg/injection, schedule: Q08DX002 (ip), vehicle: saline",121 % of control
same,T/C,"dose: 3.0 mg/kg/injection, schedule: Q01DX009 (ip), vehicle: water",111 % of control
same,T/C,"dose: 3.13 mg/kg/injection, schedule: Q04DX003 (ip), vehicle: saline with Tween-80",150 % of control
same,T/C,"dose: 4.0 mg/kg/injection, schedule: Q01DX001 (ip), vehicle: saline",118 % of control
same,T/C,"dose: 4.0 mg/kg/injection, schedule: Q03HX016 (ip), vehicle: saline",110 % of control
same,T/C,"dose: 4.0 mg/kg/injection, schedule: Q04DX003 (ip), vehicle: saline",124 % of control
same,T/C,"dose: 4.0 mg/kg/injection, schedule: Q08DX002 (ip), vehicle: saline",123 % of control
same,T/C,"dose: 6.25 mg/kg/injection, schedule: Q04DX003 (ip), vehicle: saline with Tween-80",150 % of control
same,T/C,"dose: 8.0 mg/kg/injection, schedule: Q08DX002 (ip), vehicle: saline",123 % of control
same,T/C,"dose: 12.5 mg/kg/injection, schedule: Q04DX003 (ip), vehicle: saline with Tween-80",90 % of control
COc1ccc2c3c([nH]c2c1)[C@H]1C[C@H]2[C@H](C[C@@H](O)[C@H](OC)[C@H]2C(=O)O)CN1CC3,T/C,[1],100 % of control
same,T/C,[2],100 % of control
same,T/C,"dose: 200.0 mg/kg/injection, schedule: Q01DX005 (ip), vehicle: Klucel (hydroxypropylcellulose) (HPC)",101 % of control
Cn1c2c(c(=O)n(C)c1=O)CS(=O)c1ccccc1N2 (centres undefined),T/C,"dose: 25.0 mg/kg/injection, schedule: Q01DX005 (ip), vehicle: suspension in saline",103 % of control
same,T/C,"dose: 50.0 mg/kg/injection, schedule: Q01DX005 (ip), vehicle: suspension in saline",96 % of control
same,T/C,"dose: 100.0 mg/kg/injection, schedule: Q01DX005 (ip), vehicle: suspension in saline",96 % of control
same,T/C,"dose: 200.0 mg/kg/injection, schedule: Q01DX005 (ip), vehicle: suspension in saline",97 % of control
O=P(c1ccccc1)(c1ccccc1)C(O)c1ccc(F)cc1 (centres undefined),T/C,"dose: 50.0 mg/kg/injection, schedule: Q01DX009 (ip), vehicle: Klucel (hydroxypropylcellulose) (HPC)",89 % of control
same,T/C,"dose: 100.0 mg/kg/injection, schedule: Q01DX009 (ip), vehicle: Klucel (hydroxypropylcellulose) (HPC)",100 % of control
same,T/C,"dose: 200.0 mg/kg/injection, schedule: Q01DX009 (ip), vehicle: Klucel (hydroxypropylcellulose) (HPC)",93 % of control
CC[N+]1(CC)c2ccccc2CC1C (centres undefined),T/C,"dose: 6.25 mg/kg/injection, schedule: Q01DX001 (ip), vehicle: saline",97 % of control
same,T/C,"dose: 12.5 mg/kg/injection, schedule: Q01DX001 (ip), vehicle: saline",101 % of control
same,T/C,"dose: 25.0 mg/kg/injection, schedule: Q01DX001 (ip), vehicle: saline",104 % of control
Cc1ccc(C(=O)C[n+]2ccccc2)c(O)c1,T/C,"dose: 60.0 mg/kg/injection, schedule: Q01DX005 (ip), vehicle: saline with Tween-80",98 % of control
same,T/C,"dose: 120.0 mg/kg/injection, schedule: Q01DX005 (ip), vehicle: saline with Tween-80",100 % of control
C=CCCN1CC2CC(C1)N1CCCCC1C2=O (centres undefined),T/C,"dose: 5.25 mg/kg/injection, schedule: Q01DX005 (ip), vehicle: Klucel (hydroxypropylcellulose) (HPC)",102 % of control
same,T/C,"dose: 10.5 mg/kg/injection, schedule: Q01DX005 (ip), vehicle: Klucel (hydroxypropylcellulose) (HPC)",103 % of control
same,T/C,"dose: 21.0 mg/kg/injection, schedule: Q01DX005 (ip), vehicle: Klucel (hydroxypropylcellulose) (HPC)",100 % of control
same,T/C,"dose: 42.0 mg/kg/injection, schedule: Q01DX005 (ip), vehicle: Klucel (hydroxypropylcellulose) (HPC)",103 % of control
C#Cc1cccc(N=Cc2cc([N+](=O)[O-])ccc2O)c1,T/C,[3],100 % of control
same,T/C,[4],99 % of control
same,T/C,[5],93 % of control
CC(C)(C)NC(=O)C(F)(F)C(F)(F)C(F)(F)C(=O)NC(C)(C)C,T/C,"dose: 100.0 mg/kg/injection, schedule: Q04DX003 (ip), vehicle: saline",91 % of control
same,T/C,"dose: 200.0 mg/kg/injection, schedule: Q04DX003 (ip), vehicle: saline",100 % of control
same,T/C,"dose: 400.0 mg/kg/injection, schedule: Q04DX003 (ip), vehicle: saline",99 % of control
CCSCCCCSCC,T/C,"dose: 50.0 mg/kg/injection, schedule: Q01DX009 (ip), vehicle: saline with Tween-80",100 % of control
same,T/C,"dose: 100.0 mg/kg/injection, schedule: Q01DX009 (ip), vehicle: saline with Tween-80",109 % of control
same,T/C,"dose: 200.0 mg/kg/injection, schedule: Q01DX009 (ip), vehicle: saline with Tween-80",113 % of control
CCOC(=O)c1cc(-c2ccccc2)c(OC)c(=O)nc1-c1ccccc1,T/C,"dose: 25.0 mg/kg/injection, schedule: Q01DX005 (ip), vehicle: saline with Tween-80",100 % of control
same,T/C,[3],100 % of control
same,T/C,[4],100 % of control
same,T/C,[5],112 % of control
Nc1c(/C=C/c2cc3ccc(C4=NCCN4)cc3[nH]2)[nH]c2cc(C3=NCCN3)ccc12,T/C,[6],111 % of control
same,T/C,[7],120 % of control
same,T/C,[1],189 % of control
same,T/C,[2],223 % of control
CCCCCCCC[N+]1([O-])CCCCC1,T/C,[8],97 % of control
same,T/C,[9],102 % of control
[Cl][Zn][Cl].c1ccc2[nH]cnc2c1.c1ccc2[nH]cnc2c1,T/C,[6],100 % of control
same,T/C,[7],108 % of control
same,T/C,[1],100 % of control
Cc1cc(CCO)n[nH]1,T/C,[8],97 % of control
same,T/C,[9],100 % of control
same,T/C,"dose: 200.0 mg/kg/injection, schedule: Q01DX009 (ip), vehicle: saline",100 % of control
COC(=O)c1ccc(N2C(=O)C=CC2=O)cc1,T/C,"dose: 0.75 mg/kg/injection, schedule: Q01DX009 (ip), vehicle: saline with Tween-80",100 % of control
same,T/C,"dose: 1.5 mg/kg/injection, schedule: Q01DX009 (ip), vehicle: saline with Tween-80",100 % of control
same,T/C,"dose: 3.0 mg/kg/injection, schedule: Q01DX009 (ip), vehicle: saline with Tween-80",120 % of control
CC1CC[P+](c2ccccc2)(c2ccccc2)c2c1ccc1ccccc21 (centres undefined),T/C,"dose: 6.25 mg/kg/injection, schedule: Q04DX002 (ip), vehicle: saline",118 % of control
same,T/C,"dose: 12.5 mg/kg/injection, schedule: Q04DX002 (ip), vehicle: saline",108 % of control
O=C(c1ccccc1)C(CC(C(=O)c1ccccc1)c1ccccc1)c1ccccc1 (centres undefined),T/C,[3],108 % of control
same,T/C,[4],96 % of control
same,T/C,[5],99 % of control
